From article PMC13198257, “An aerosolized dual-action autotaxin inhibitor-PPARγ agonist for the treatment of pulmonary fibrosis” (Cell Reports Medicine, 2026)
Entries after “also recorded” stand apart in the source; their conditions may differ.

Columns and labels:
[1] = system: choline oxidase and horseradish peroxidase; assay: Interference with the 2nd and 3rd reaction of the Amplex Red assay; assay type: biochemical
Description: ATX inhibitory activity in vitro of examined compounds was assessed with the Amplex Red assay,[32]^,[35]^,[36] as recently published in detail.[37] The assay was done in Amplex Red Assay buffer (Tris 50 mM, CaCl2 5 mM, pH 8). Briefly, 50 μL of increasing concentrations of each compound were placed in separate wells of a black 96-well plate. […] 50 μL of the LPC-containing assay buffer (200 μM) were added to the wells and incubated for 30 min at 37°C to allow the enzyme to initially interact with its substrate. 50 μL of the detection mix (Amplex Red 200 μM, choline oxidase 0.4 U/mL, horseradish peroxidase 4 U/mL) were added to the plate wells. Fluorescence was measured in a Tecan M200 Fluorimeter using excitation at 530 nm and reading at 590 nm, every 5 min for 30 min. The velocity of the reaction and the remaining ATX activity were calculated at the linear phase of the reaction. Dose-response inhibition graphs were plotted with GraphPad Software.
Figure S3. Kinetic analysis of ATX inhibition. Related to Figures 3 and 4
(B) Kinetics for the second (oxidation of choline catalysed by choline oxidase) and third reaction (the conversion of the
Amplex substrate to the fluorescent resorufin catalysed by horseradish peroxidase, HRP) of the Amplex Red Lyso-
phospholipase D assay for representative compounds (TGZ, 4, 5 and EL244). The first reaction includes the conversion of
LPC to LPA catalysed by ATX.
Kinetic graphs are indicative of three technical replicates. […]

[2] = biological target: T1, PPARγ LBD (Homo sapiens, UniProt P37231); assay: Isothermal titration calorimetry (ITC); assay type: binding; conditions: for Kd: PPARγ LBD, 25°C
T1 construct: using recombinant PPARγ LBD protein dissolved in a buffer; made in house
T1 sequence (P37231 238-503 limits assumed): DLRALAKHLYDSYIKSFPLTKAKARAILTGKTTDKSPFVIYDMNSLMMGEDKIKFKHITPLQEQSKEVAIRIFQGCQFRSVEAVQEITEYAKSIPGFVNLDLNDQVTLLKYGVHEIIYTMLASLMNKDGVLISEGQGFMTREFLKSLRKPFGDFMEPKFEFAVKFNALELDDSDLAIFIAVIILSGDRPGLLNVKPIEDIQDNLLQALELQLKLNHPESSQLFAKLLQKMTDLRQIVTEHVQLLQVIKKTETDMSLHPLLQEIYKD
Description: ITC was performed[49] on a TA Instruments Affinity ITC (TA Instruments, New Castle, Delaware, USA), using recombinant PPARγ LBD protein dissolved in a buffer containing 25 mM HEPES, 150 mM KF, 5 mM DTT, 10% w/v glycerol and 1% DMSO at pH 7.5. […] The titration was performed at 25°C with a stirring rate of 75 rpm. An interval of 300 s was maintained between injections. ITC raw data were analyzed with the NanoAnalyze software package (version 3.7.5). An independent binding model was used to fit the reaction enthalpy (ΔH), binding affinity constant (KD), and stoichiometry (n). Free energy change (ΔG) was calculated with the equation ΔG = −RT ln K and the entropy (ΔS) was calculated with the equation ΔG = ΔH−TΔS.

[3] = PK of EL244: plasma and lung levels after i.p. or inhaled administration; assay type: in vivo, mice
[4] = system: 3T3-L1; assay: Differentiation of 3T3-L1 fibroblasts into adipocytes; assay type: cell-based
Description: Adipogenic differentiation was carried out following a well-established protocol.[63]^,[142] Upon reaching approximately 70% confluence, cells were induced to differentiate (day 0) by replacing the culture medium with complete DMEM containing 10μg/mL insulin. Experimental groups received either EL244 (1μM or 10μΜ) or the standard adipogenic induction cocktail consisting of 1μM dexamethasone (DEX) and 0.5mM 3-isobutyl-1-methylxanthine (IBMX), as indicated. On day 3, the medium was replaced with complete DMEM supplemented with 10μg/mL insulin, with continued exposure to EL244 (1μM or 10μM) in the respective treatment groups. On day 6, the medium was refreshed with complete DMEM containing the corresponding concentrations of EL244.
Differentiated adipocytes were fixed with 10% formalin solution for 2 h, washed with 60% isopropanol, and stained with filtered 0.3% (w/v) Oil red O solution for 20 min. Following staining, cells were washed three times with dH2O to remove excess dye and observed using a bright-field microscope. Fow quantification, cells were destained with 100% isopropanol and lipid accumulation levels were quantified by Oil red O absorption at 500nm.

[5] = system: human PCLS; assay: Human PCLS with pro-fibrotic cocktail; assay type: cell-based; conditions: 25 and 50 μΜ
Description: hPCLS were prepared from tumour-free lung tissue obtained during surgical resection from a patient undergoing surgery for pulmonary adenocarcinoma (Subject ID: LB26-0020). The biopsy was provided by the Biobanque CRB-Tumorothèque de Nice, Biobanque CHU de Nice (BB-0033-00025; approved protocol # CSE 2022-EV34), collected after written informed consent, in accordance with the Declaration of Helsinki and applicable French regulations for human biological materials.
The lung biopsy was rinsed thoroughly with Hank’s balanced salt solution (HBSS, Sigma-Aldrich) supplemented with antibiotics. The tissue was then infused with a 2.5% low-melting agarose solution prepared in DMEM/F-10 containing antibiotics, maintained at 40°C, and rapidly cooled to solidify the agarose. 8 mm tissue punches were then excised and sectioned into 300 μm-thick slices using the Compresstome VF-300-0Z (Precisionary Instruments). Each hPCLS was transferred into an individual well of a 24-well plate containing 500 μL of culture medium supplemented with 1× antibiotic–antimycotic solution (penicillin, streptomycin, amphotericin B), 50 μg/mL gentamicin, 1× insulin-transferrin-selenium (ITS) supplement, and 0.1% FBS. Slices were incubated at 37°C in a humidified atmosphere with 5% CO2. The culture medium was replaced after several hours.
Fibrosis was induced by a pro-fibrotic cocktail (PFC; 5 ng/mL TGF-β1, […] PDGF-AB, 10 ng/mL TNF-a and 5 μM LPA 18:1), following a well-established protocol.[73] Individual PCLS were first incubated with the PFC for 48 h. After this initial exposure, the medium was renewed and PCLS were treated for an additional 72 h with either PFC alone or PFC supplemented with EL244 (25 μM or 50 μM). Untreated PCLS served as controls.

| SMILES | Interference on the 2nd and 3rd steps of the Amplex Red assay [1] | Thermodynamics of binding to PPARγ-LBD [2] | Kd [2] | Plasma concentration ([3]; i.p. 30 mg/Kg, 3 h) | Clearance rate from the lung and absorption in the systemic circulation ([3]; inhaled 15 mg/kg) | Retention in the lung ([3]; inhaled 15 mg/kg) | concentration at 1 h ([3]; mouse, plasma, ip, i.p. 30 mg/Kg, 1 hour) | concentration at 9 h ([3]; mouse, plasma, ip, i.p. 30 mg/Kg, 9 h post-dose) | Adipogenesis (oil red O lipid droplets) ([4]; 1 or 10 μM with insulin, compared with IBMX/DEX) | Expression of PPARγ target genes (Adipoq, Fabp4, CD36) and PPARγ ([4]; RT-qPCR) | Col1a1 and Acta2 mRNA expression [5] | Development of fibrosis (histology) [5] | PPARγ target gene expression [5] |
| --- | --- | --- | --- | --- | --- | --- | --- | --- | --- | --- | --- | --- | --- |
| O=C1NC(=O)C(Cc2ccc(OCCN3CCN(C(=O)OCc4cc(Cl)cc(Cl)c4)CC3)cc2)S1 (stereo not shown) [Compound 5, 3,5-dichlorobenzyl4-(2-(4-((2,4-dioxothiazolidin-5-yl)methyl)phenoxy)ethyl)piperazine-1-carboxylate] | Minimal interference; also recorded: not involved at all in the second and third reaction | entropy-driven | 600 nM |  |  |  |  |  |  |  |  |  |  |
| O=C1NC(=O)C(Cc2ccc(OCCC3CCN(C(=O)OCc4cc(Cl)cc(Cl)c4)CC3)cc2)S1 (stereo not shown) [EL244, 3,5-dichlorobenzyl 4-(2-(4-((2,4-dioxothiazolidin-5-yl)methyl)phenoxy)ethyl)piperidine-1-carboxylate] | not involved at all in the second and third reaction | enthalpy-driven | 1300 nM | ~35 μΜ | low | highly retained in the lung | 40 µM | 15 µM | promoted adipogenesis dose responsively | induced the expression of several PPARγ target genes | downregulation | prevented and/or attenuated the development of fibrosis | upregulated the expression of PPARγ target genes |
